Common to all, as to test: biochemical
Common to all, as to design: MDS Pharma Lead Profiling screen, binding assays, per cent inhibition, duplicate

Assay [1] concerns the target T1, Serotonin 5-HT3 (Homo sapiens, UniProt P46098).
T1 construct: gene HTR3A
The protocol: (§1) The activity of Dimebon against selected set of biochemical targets was performed by MDS Pharma Services . The Dimebon was provided to MDS Pharma as dry powder, dissolved in DMSO and tested in 10 μM concentrations. The standard Lead Profiling + CYP450 screen was performed according to MDS Pharma specifications with additional custom-chosen targets added to the screen as indicated. To further understand potential mechanisms responsible for clinical effects of Dimebon, we evaluated Dimebon against a set of selected biochemical targets. Dimebon evaluation was performed by MDS Pharma Services . The standard Lead Profiling + CYP450 screen was performed with additional custom-selected targets added to the screen. The results of the screen obtained at 10 μM of Dimebon are provided as Additional File 3. […] Low affinity (50–60% inhibition) interactions were also observed for CYP450, 2C19 receptor, voltage-gated L-type Ca^2+ channel, Dopamine D4.2 receptor, and Serotonin 5-HT1 receptor. […] Supplementary file 1750-1326-3-15-S3.pdf: Additional file 3 The results of Dimebon screening against a selected set of biochemical targets. The complete results obtained by MDS Pharma with a selected list of biochemical targets using 10 μM of Dimebon as a probe. The Cat numbers refer to the MDS Pharma Services assay specification. The receptors and species are listed. Dimebon was tested at 10 μM concentratio in duplicate. The % inhibition by Dimebon is shown numerically and graphically for each receptor. Significant targets (defined as % inhibition > 50%) are highlighted in yellow. Click here for file

The target in assay [2] is T2, Serotonin 5-HT5A receptor (Homo sapiens, UniProt P47898).
T2 construct: gene HTR5A
The protocol:
as §1

Assay [3] addresses T3, Serotonin 5-HT6 receptor (Homo sapiens, UniProt P50406).
T3 construct: gene HTR6
How it is done:
as §1

Assay [4] has as its target T4, Opiate kappa (OP2, KOP) (Homo sapiens, UniProt P41145).
T4 construct: gene OPRK1
The protocol: as §1

The target in assay [5] is T5, α2A-Adrenergic receptor (Homo sapiens, UniProt P08913).
T5 construct: gene ADRA2A
T5 sequence (P08913 whole entry): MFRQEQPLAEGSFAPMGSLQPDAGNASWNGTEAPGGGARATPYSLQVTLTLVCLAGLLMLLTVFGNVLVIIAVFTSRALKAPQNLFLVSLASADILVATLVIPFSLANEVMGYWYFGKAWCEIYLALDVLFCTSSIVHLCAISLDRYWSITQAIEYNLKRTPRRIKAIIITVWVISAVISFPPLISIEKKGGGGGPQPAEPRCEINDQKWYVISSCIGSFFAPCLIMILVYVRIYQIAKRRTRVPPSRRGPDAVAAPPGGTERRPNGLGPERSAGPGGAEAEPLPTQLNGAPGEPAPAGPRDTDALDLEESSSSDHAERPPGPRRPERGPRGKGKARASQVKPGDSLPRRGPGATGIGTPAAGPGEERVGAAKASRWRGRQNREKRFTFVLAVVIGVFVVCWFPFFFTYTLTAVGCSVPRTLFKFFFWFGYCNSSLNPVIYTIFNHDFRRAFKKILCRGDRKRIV
The protocol:
as §1

Assay [6] deals with T6, Dopamine D2S receptor (Homo sapiens, UniProt P14416).
T6 construct: gene DRD2; D2S
T6 sequence (P14416 1-414 isoform P14416-2): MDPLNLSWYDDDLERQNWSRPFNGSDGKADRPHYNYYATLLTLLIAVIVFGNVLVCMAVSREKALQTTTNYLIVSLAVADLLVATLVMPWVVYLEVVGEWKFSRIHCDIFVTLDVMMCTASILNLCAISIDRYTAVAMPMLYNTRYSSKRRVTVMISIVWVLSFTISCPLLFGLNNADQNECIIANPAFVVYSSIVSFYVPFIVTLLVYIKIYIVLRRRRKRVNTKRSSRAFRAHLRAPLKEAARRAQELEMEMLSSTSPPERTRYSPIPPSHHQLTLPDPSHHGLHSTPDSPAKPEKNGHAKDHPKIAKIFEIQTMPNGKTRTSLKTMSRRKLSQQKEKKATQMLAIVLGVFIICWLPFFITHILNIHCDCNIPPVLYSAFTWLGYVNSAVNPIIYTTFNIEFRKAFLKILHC
How it is done:
as §1

The target in assay [7] is T7, Sigma 2 (Rattus norvegicus, UniProt Q5U3Y7).
T7 construct: gene Tmem97
T7 sequence (Q5U3Y7 whole entry): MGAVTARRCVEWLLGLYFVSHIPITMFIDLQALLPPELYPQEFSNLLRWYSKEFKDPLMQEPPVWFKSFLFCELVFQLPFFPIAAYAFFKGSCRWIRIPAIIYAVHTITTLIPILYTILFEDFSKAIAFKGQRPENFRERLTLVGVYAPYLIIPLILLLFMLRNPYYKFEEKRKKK
The protocol: as §1

Assay [8] has as its target T8, Epidermal Growth Factor (EGF) (Homo sapiens, UniProt P00533).
T8 construct: gene EGFR
How it is done: as §1

The target in assay [9] is T9, Opiate mu (OP3, MOP) (Homo sapiens, UniProt P35372).
T9 construct: gene OPRM1
T9 sequence (P35372 whole entry): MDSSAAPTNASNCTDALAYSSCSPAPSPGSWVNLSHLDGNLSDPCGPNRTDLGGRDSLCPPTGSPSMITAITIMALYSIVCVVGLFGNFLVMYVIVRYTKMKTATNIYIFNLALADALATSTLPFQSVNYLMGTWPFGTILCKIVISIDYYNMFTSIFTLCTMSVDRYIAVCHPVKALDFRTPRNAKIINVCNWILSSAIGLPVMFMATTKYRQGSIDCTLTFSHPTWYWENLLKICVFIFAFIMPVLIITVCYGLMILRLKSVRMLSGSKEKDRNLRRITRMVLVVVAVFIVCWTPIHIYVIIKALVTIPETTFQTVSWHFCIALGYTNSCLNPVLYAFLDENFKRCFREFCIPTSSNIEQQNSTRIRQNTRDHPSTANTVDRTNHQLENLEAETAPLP
How it is done:
as §1

The target in assay [10] is T10, α1D-Adrenergic receptor (Homo sapiens, UniProt P25100).
T10 construct: gene ADRA1D
T10 sequence (P25100 whole entry): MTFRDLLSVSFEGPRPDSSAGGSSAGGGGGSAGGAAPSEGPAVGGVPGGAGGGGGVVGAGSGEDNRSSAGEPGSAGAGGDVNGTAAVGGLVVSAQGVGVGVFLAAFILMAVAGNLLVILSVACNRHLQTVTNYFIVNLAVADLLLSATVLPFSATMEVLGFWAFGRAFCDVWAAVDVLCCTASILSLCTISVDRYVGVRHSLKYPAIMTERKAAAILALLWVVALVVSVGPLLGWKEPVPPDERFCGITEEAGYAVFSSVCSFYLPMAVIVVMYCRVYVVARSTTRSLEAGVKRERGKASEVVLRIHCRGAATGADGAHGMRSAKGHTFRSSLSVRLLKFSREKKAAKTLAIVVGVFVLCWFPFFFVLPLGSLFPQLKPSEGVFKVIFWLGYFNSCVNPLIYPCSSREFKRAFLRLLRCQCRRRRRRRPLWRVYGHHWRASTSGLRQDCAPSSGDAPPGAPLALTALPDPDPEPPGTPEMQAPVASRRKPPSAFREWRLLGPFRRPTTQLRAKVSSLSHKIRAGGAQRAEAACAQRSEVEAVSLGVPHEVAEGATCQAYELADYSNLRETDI
How it is done: as §1

In assay [11] the target is T11, Transporter, Serotonin (SERT) (Homo sapiens, UniProt P31645).
T11 construct: gene SLC6A4
How it is done:
as §1

Assay [12] has as its target T12, GABAB1A (Homo sapiens, UniProt Q9UBS5).
T12 construct: gene GABBR1; isoform 1A
How it is done: as §1

Assay [13] concerns the target T13, Histamine H3 (Homo sapiens, UniProt Q9Y5N1).
T13 construct: gene HRH3
How it is done: as §1

For assay [14], the target named is T14, Adrenergic beta2 (Homo sapiens, UniProt P07550).
T14 construct: gene ADRB2
How it is done: as §1

Assay [15] concerns the target T15, Muscarinic M2 (Homo sapiens, UniProt P08172).
T15 construct: gene CHRM2
The protocol: as §1

The target of assay [16] is T16, Histamine H2 receptor (Homo sapiens, UniProt P25021).
T16 construct: gene HRH2
T16 sequence (P25021 whole entry): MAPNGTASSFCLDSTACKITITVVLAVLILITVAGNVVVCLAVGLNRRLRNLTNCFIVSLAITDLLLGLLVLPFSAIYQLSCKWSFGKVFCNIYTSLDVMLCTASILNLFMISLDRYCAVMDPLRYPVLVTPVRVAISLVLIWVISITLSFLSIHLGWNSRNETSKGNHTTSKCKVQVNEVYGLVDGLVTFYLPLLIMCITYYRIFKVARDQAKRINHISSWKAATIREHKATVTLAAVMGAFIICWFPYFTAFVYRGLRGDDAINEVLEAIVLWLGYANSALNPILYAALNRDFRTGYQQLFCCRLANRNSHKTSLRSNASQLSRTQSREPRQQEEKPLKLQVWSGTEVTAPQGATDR
How it is done: as §1

Assay [17] addresses T17, α1A-Adrenergic receptor (Rattus norvegicus, UniProt P43140).
T17 construct: gene Adra1a
The protocol: as §1

The target of assay [18] is T18, Serotonin 5-HT1A (Homo sapiens, UniProt P08908).
T18 construct: gene HTR1A
The protocol: as §1

The target of assay [19] is T19, Serotonin 5-HT2B (Homo sapiens, UniProt P41595).
T19 construct: gene HTR2B
How it is done: as §1

For assay [20], the target named is T20, Adrenergic beta1 (Homo sapiens, UniProt P08588).
T20 construct: gene ADRB1
How it is done:
as §1

Assay [21] deals with T21, Adenosine A3 (Homo sapiens, UniProt P0DMS8).
T21 construct: gene ADORA3
T21 sequence (P0DMS8 whole entry): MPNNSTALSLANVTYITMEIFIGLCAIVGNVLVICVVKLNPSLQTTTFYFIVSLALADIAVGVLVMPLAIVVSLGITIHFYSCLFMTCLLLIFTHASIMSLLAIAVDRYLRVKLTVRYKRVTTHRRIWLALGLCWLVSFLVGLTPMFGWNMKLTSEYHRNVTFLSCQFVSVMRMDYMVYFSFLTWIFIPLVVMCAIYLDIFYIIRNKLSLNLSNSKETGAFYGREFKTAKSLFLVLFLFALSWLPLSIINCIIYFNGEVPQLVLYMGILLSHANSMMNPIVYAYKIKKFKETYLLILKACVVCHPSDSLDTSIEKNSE
How it is done: as §1

T13 sequence (Q9Y5N1 whole entry): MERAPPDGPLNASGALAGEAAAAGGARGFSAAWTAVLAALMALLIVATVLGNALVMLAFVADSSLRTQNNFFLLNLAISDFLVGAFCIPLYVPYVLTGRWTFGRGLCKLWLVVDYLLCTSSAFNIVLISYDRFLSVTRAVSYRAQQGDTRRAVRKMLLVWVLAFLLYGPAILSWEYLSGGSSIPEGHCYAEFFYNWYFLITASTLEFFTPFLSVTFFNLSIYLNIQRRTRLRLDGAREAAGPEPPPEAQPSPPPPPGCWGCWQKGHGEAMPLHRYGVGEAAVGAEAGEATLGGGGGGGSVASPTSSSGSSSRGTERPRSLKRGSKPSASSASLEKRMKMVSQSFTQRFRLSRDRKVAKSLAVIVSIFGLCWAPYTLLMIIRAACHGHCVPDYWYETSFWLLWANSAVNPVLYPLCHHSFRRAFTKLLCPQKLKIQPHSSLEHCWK
T1 sequence (P46098 whole entry): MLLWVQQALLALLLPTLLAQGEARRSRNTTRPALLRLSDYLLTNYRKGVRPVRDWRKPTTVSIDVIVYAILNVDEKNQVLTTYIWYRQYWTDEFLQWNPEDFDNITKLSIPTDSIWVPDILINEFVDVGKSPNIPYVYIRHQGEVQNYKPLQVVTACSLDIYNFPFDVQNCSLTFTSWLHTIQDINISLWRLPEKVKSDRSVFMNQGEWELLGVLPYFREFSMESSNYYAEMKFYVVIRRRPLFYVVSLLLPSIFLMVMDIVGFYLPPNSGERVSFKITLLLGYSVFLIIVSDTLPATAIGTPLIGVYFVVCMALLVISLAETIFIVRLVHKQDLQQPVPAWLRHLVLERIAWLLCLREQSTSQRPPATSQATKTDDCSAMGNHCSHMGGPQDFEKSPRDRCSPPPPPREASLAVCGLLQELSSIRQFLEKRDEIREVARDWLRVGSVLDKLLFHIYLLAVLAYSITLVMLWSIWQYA
T3 sequence (P50406 whole entry): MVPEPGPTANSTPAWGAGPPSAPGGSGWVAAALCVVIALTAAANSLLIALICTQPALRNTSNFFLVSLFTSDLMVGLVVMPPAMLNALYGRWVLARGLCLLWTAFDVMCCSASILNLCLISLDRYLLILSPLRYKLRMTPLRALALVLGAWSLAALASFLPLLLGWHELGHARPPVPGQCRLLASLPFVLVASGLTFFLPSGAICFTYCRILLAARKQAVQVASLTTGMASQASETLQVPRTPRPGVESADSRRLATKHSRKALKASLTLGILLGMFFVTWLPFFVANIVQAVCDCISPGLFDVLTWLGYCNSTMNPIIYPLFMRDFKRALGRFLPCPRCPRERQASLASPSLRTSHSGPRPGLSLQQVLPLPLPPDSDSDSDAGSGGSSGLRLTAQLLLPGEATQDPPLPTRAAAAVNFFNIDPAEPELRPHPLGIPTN
T17 sequence (P43140 whole entry): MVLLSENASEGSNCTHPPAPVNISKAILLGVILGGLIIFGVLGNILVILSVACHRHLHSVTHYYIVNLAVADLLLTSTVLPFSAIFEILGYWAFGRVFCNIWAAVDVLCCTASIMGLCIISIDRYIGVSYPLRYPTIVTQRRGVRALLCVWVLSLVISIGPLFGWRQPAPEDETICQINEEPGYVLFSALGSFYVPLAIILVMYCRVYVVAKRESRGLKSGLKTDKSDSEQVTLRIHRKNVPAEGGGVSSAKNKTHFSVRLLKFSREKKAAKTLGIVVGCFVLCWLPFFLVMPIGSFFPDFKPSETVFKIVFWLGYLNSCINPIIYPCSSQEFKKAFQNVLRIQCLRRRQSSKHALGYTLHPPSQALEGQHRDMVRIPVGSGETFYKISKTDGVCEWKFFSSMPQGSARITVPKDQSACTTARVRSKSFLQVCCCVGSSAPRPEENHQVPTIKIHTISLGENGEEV
T4 sequence (P41145 whole entry): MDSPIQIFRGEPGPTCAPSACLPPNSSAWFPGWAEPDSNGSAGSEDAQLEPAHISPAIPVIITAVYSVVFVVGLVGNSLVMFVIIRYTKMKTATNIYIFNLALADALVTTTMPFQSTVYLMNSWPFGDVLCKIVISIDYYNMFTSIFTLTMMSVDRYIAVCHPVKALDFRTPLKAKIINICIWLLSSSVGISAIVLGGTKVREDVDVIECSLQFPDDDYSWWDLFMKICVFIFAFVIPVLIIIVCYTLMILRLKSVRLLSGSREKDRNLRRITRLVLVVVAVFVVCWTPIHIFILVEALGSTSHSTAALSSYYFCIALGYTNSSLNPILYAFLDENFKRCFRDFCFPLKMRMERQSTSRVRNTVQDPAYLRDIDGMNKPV

What is called inhibition is the relative decrease from the control value, in per cent. Take `Cc1ccc2c(c1)c1c(n2CCc2ccc(C)nc2)CCN(C)C1` [Dimebon, 2,3,4,5-Tetrahydro-2,8-dimethyl-5-(2-(6-methyl-3-pyridyl)ethyl)-1H-pyrido(4,3-b)indole]: the inhibition at 10 µM was -7% in assay [1]; 99% in [2]; 101% in assay [3]; 16% in assay [4]; 97% in assay [5]; 83% in assay [6]. In addition, the inhibition at 10 µM in assay [7] was 22%; in assay [8] it was 1%; in [9], 10%; in [10], 95%; in [11] it was -7%; in assay [12], -10%. The inhibition at 10 µM in [13] is -4%; in assay [14], 14%; in assay [15], 8%; in assay [16], 96%; in [17] it was 96%; in [18], 22%. The figures for the inhibition at 10 µM in assay [19], in assay [20] and in assay [21] were 74%, -7% and 6%, respectively.

The values are drawn from publication PMC2577671, “Evaluation of Dimebon in cellular model of Huntington's disease” (Molecular Neurodegeneration, 2008).
